Results on five compounds are retold here after PMC10458253, “Unraveling the In Vitro Toxicity Profile of Psychedelic 2C Phenethylamines and Their N-Benzylphenethylamine (NBOMe) Analogues” (Pharmaceuticals, 2023).

A short description of data set [1]: CHI on Immobilized Artificial Membrane (IAM) HPLC, Kpcell. Type of data set: physicochemical. Conditions: partition between internal and external cellular media; estimated from experimental CHI(IAM). The method, then:
The CHI on IAM (CHI (IAM)) values were determined from the experimental tR obtained on the HPLC system with an IAM.PC.DD2 column (100 × 4.6 mm, 10 µm, Regis Technologies, Inc., Morton Grove, IL, USA). […] The Log Kpcell (partition between internal and external cellular media) values were estimated from the drugs’ experimental CHI IAM values using Equations (2) and (3) described elsewhere. Log kIAM = 0.046 CHI(IAM) + 0.42(2) Log Kpcell = 1.1 Log kIAM(3)

Data set [2] relates to differentiated SH-SY5Y cells. Kind of data set: Intracellular total glutathione (DTNB-GSH recycling assay). Conditions: 24 h. Format: cell-based. As to the method:
Total GSH was quantified through the DTNB-GSH recycling assay. Briefly, GSH is oxidized by 5,5′-dithiobis (2-nitrobenzoic acid) (DTNB) producing 5-thio-2-nitrobenzoic acid (TNB) and a glutathione adduct of GSH (GS-TNB). In the presence of NADPH, GS-TNB is reduced by glutathione reductase to 2GSH (recycled). The GSH concentration in the samples is thus proportional to TNB formation, which is measurable at 415 nm.
Intracellular total glutathione (GSH) was measured through the DTNB-GSH recycling assay. […]
The acidic samples and standards (GSH standards prepared in 5% HClO4) were neutralized with ice-cold 0.76 M KHCO3 (1:1) and centrifuged (13,000× g, 10 min at 4 °C). Subsequently, 100 µL of the supernatants were transferred to a 96-well plate, followed by the addition of 65 µL of an extemporaneous reagent solution (3.96 mM DTNB and 0.68 mM NADPH prepared in a 7.5 pH phosphate buffer: 71.5 mM Na2HPO4, 71.5 mM NaH2PO4, and 0.63 mM EDTA) and the plates were incubated for 15 min in a multi-well plate reader (PowerWaveX BioTek Instruments, Winooski, VT, USA) at 30 °C. At the end of the incubation period, 40 µL of a 10 U/mL glutathione reductase (prepared in phosphate buffer) solution was added and the absorbance was then measured, for 3 min, at 415 nm, in kinetic mode to follow the TNB formation. […]

Data set [3] has as its system differentiated SH-SY5Y cells. Kind of data set: Intracellular ATP (luciferin-luciferase bioluminescence assay). Format: cell-based. The conditions noted are these: 24 h, 500 μM. The method, then:
Intracellular ATP levels were determined, as previously described, through a bioluminescence reaction with luciferase, which catalyzes the formation of light from ATP and luciferin.
Intracellular adenosine triphosphate (ATP) was quantified through the bioluminescent D-luciferin-luciferase assay. The samples used for the intracellular ATP quantification were prepared as described for the “Intracellular Total Glutathione Quantification” assay. The acidic samples and standards (ATP standards prepared in 5% HClO4) were neutralized with ice-cold 0.76 M KHCO3 (1:1) and centrifuged (13,000× g, 10 min at 4 °C). Afterwards, 75 µL of the supernatants were transferred to a white opaque 96-well plate, followed by the addition of 75 µL of luciferin-luciferase solution (0.15 mM luciferin and 3 × 10^6 light unit’s luciferase/mL prepared in a 7.6 pH Tris-Glycine buffer solution: 1 mM Trizma; 10 mM MgSO4; 50 mM glycine; 0.55 mM EDTA and 1% BSA), protected from light. The samples’ bioluminescence (560 nm) was immediately measured in a multi-well plate reader (PowerWaveX BioTek Instruments, Winooski, VT, USA). The ATP content in the samples was normalized to the protein content (as previously described in “Intracellular Reduced Glutathione Quantification”) and the results were expressed as a percentage of control cells. At least four independent experiments were performed, in duplicate.

In data set [4] the test system is differentiated SH-SY5Y cells. Kind of data set: Mitochondrial membrane potential (JC-1 dye). The conditions noted are these: 24 h, 0–500 µM, vs control. Type of data set: cell-based. The method, then: Mitochondrial transmembrane potential (Δѱm) was determined using the JC-1 dye, which can selectively enter the mitochondria and reversibly change the dye’s fluorescent properties depending on the Δѱm. At high Δѱm conditions—representative of healthy cells—JC-1 forms J-aggregates generating red fluorescence. At low Δѱm conditions—representative of unhealthy or apoptotic cells—JC-1 is predominantly a monomer generating green fluorescence.
The mitochondrial membrane potential was evaluated by using the JC-1 probe. SH-SY5Y cells were seeded and differentiated in 48-well plates and, 6 days after seeding, the cells were exposed to the six drugs (0–500 µM) for 24 h, at 37 °C, in a 5% CO2–95% air atmosphere. Subsequently, the medium was removed, and the cells were incubated with 20 µM JC-1 for 30 min, protected from light, at 37 °C, in a 5% CO2–95% air atmosphere. At the end of the incubation period, the cells were centrifuged (300× g, 5 min at room temperature) and washed (warm HBSS with calcium and magnesium) twice. The fluorescence was then measured in a multi-well plate reader: at 535 nm excitation and 595 nm emission wavelengths for J-aggregates; and at 485 nm excitation and 535 nm emission wavelengths for JC-1 monomers (PowerWaveX BioTek Instruments, USA). […] The results were calculated as red/green fluorescence intensity ratios and expressed as percentages of control cells. […]

Molecules are shown by their SMILES.

With `COc1cc(CCN)c(OC)cc1Br` [2C-B, 4-Bromo-2,5-dimethoxy-β-phenethylamine], the Kpcell in data set [1] was 3.08. The “total GSH intracellular levels” value in data set [2] (250 μM) is on record as “no significant alterations”.

Take `COc1cc([N+](=O)[O-])c(OC)cc1CCN` [2C-N, 2,5-dimethoxy-4-nitrophenethylamine]: in data set [1], the Kpcell is 0.94. In data set [3], the ATP intracellular levels entry is “about 60 % of control cells”.

On to `COc1cc(CCNCc2ccccc2OC)c(OC)cc1Br` [25B-NBOMe, 4-Bromo-2,5-dimethoxy-N-(2-methoxybenzyl)-β-phenethylamine], for which, in data set [1], the Kpcell is reported as 9.08. The “JC-1 red/green ratio (mitochondrial membrane potential)” value in data set [4] is on record as “the most operative drug in inducing mitochondrial membrane depolarization”. In data set [2] (10 μM), the “total GSH intracellular levels” value was “drastically reduced the total GSH levels”. Also, the ATP intracellular levels entry in data set [3] is reported as “completely depleted intracellular ATP levels”.

`COc1cc([N+](=O)[O-])c(OC)cc1CCNCc1ccccc1OC` [25N-NBOMe, 4-Nitro-2-dimethoxy-N-(2-methoxybenzyl)-β-phenethylamine]: in data set [1], the Kpcell is given as 5.05.

For the compound `COc1ccccc1CNCCc1cc(OC)c(OC)c(OC)c1` [Mescaline-NBOMe, 3,4,5-Trimethoxy-N-(2-methoxybenzyl)-β-phenethylamine], the Kpcell in data set [1] was 2.71.
